Experimental data from ChEMBL document CHEMBL5634109, “Synthesis and mechanism of action of new purine derivatives against triple negative breast cancer” (Eur J Med Chem, 2023).
Calls of active or inactive are those of the source. The calls are words filed in the database; no cut-off is given here.

Columns and labels:
MDA-MB-231 [1] = test: Induction of ROS generation in human MDA-MB-231 cells assessed as increase in intracellular ROS level at 40 uM incubated for 48 hrs by DCFH-DA staining based fluorescence microscopic analysis (Rvb=79.6%); assay type: functional
[2] = molecular target: Cyclin-dependent kinase 7 (Homo sapiens, UniProt P50613); test: Inhibition of CDK7 (unknown origin)
[3] = molecular target: Dual specificity protein kinase CLK2 (Homo sapiens, UniProt P49760); test: Inhibition of CLK2 (unknown origin)
[4] = molecular target: Dual specificity protein kinase CLK4 (Homo sapiens, UniProt Q9HAZ1); test: Inhibition of CLK4 (unknown origin)
[5] = molecular target: Dual specificity protein kinase CLK1 (Homo sapiens, UniProt P49759); test: Inhibition of CLK1 (unknown origin)
[6] = molecular target: Dual specificity tyrosine-phosphorylation-regulated kinase 1A (Homo sapiens, UniProt Q13627); test: Inhibition of DYRK1A (unknown origin)
K562 = test: Antiproliferative activity against human K562 cells assessed as reduction in cell viability measured for 48 hrs by MTT assay; assay type: functional, cell-based; settings: K562, 48 h
MGC-803 = test: Antiproliferative activity against human MGC-803 cells assessed as reduction in cell viability measured for 48 hrs by MTT assay; assay type: functional, cell-based; settings: MGC-803, 48 h
A549 = test: Antiproliferative activity against human A549 cells assessed as reduction in cell viability measured for 48 hrs by MTT assay; assay type: functional, cell-based; settings: A549, 48 h
NCI-H1299 = test: Antiproliferative activity against human NCI-H1299 cells assessed as reduction in cell viability measured for 48 hrs by MTT assay; assay type: functional, cell-based; settings: NCI-H1299, 48 h
HT-29 = test: Antiproliferative activity against human HT-29 cells assessed as reduction in cell viability measured for 48 hrs by MTT assay; assay type: functional, cell-based; settings: HT-29, 48 h
PC-3 = test: Antiproliferative activity against human PC-3 cells assessed as reduction in cell viability measured for 48 hrs by MTT assay; assay type: functional, cell-based; settings: PC-3, 48 h
MDA-MB-231 [7] = test: Antiproliferative activity against human MDA-MB-231 cells assessed as reduction in cell viability measured for 48 hrs by MTT assay; assay type: functional, cell-based; settings: MDA-MB-231, 48 h
MDA-MB-231 [8] = test: Antiproliferative activity against human MDA-MB-231 cells assessed as reduction in viability at 4 uM incubated for 7.5 hrs by MTT assay; assay type: functional
MDA-MB-231 [9] = test: Antiproliferative activity against human MDA-MB-231 cells assessed as reduction in viability at 10 uM incubated for 7.5 hrs by MTT assay; assay type: functional
MDA-MB-231 [10] = test: Induction of apoptosis in human MDA-MB-231 cells assessed as increase in number of cell debris at 4 uM incubated for 48 hrs; assay type: functional, cell-based
MDA-MB-231 [11] = test: Induction of apoptosis in human MDA-MB-231 cells assessed as apoptotic cells at 4 uM incubated for 12 hrs by Annexin V-FITC/PI staining based analysis; assay type: functional
MDA-MB-231 [12] = test: Induction of apoptosis in human MDA-MB-231 cells assessed as apoptotic cells at 4 uM incubated for 48 hrs by Annexin V-FITC/PI staining based analysis; assay type: functional
MDA-MB-231 [13] = test: Induction of apoptosis in human MDA-MB-231 cells assessed as apoptotic cells at 40 uM incubated for 24 hrs by Annexin V-FITC/PI staining based analysis; assay type: functional
MDA-MB-231 [14] = test: Induction of apoptosis in human MDA-MB-231 cells assessed as apoptotic cells at 40 uM incubated for 48 hrs by Annexin V-FITC/PI staining based analysis; assay type: functional
Cell membrane = test: Induction of mitochondrial membrane potential loss in human MDA-MB-231 cells assessed as increase in fluorescence intensity at 40 uM incubated for 48 hrs by TMRM dye based flow cytometry analysis (reference value: 97.5%)
MDA-MB-231 [15] = test: Inhibition of cell migration human MDA-MB-231 cells assessed as migration distance at 25 uM incubated for 48 hrs by wound healing assay (reference value: 642.72 micrometer); assay type: functional
HUVEC = test: Antiangiogenesis activity in HUVEC cells at 62.5 nM incubated for 12 hrs by microscopic analysis; assay type: functional, cell-based; settings: Homo sapiens
MDA-MB-231 [16] = test: Antitumor activity against human MDA-MB-231 cells xenografted in nude mouse assessed as reduction in tumor growth at 10 to 20 mg/kg, ip measured for 3 days; assay type: functional, organism-based; settings: dose 10-20 mg/kg, time 3.0 day
[17] = Toxicity in nude mouse xenografted with human MDA-MB-231 cells assessed as change in body weight at 10 to 20 mg/kg, ip measured for 3 days; assay type: organism-based; settings: in vivo, 72 h, dose 10-20 mg/kg, time 3 day
MDA-MB-231 [18] = test: Antitumor activity against human MDA-MB-231 cells xenografted in nude mouse assessed as inhibition of proliferation of tumor cells at 10 mg/kg, ip measured for 3 days by H and E staining based analysis; assay type: functional, organism-based; settings: time 3.0 day
MDA-MB-231 [19] = test: Antitumor activity against human MDA-MB-231 cells xenografted in nude mouse assessed as inhibition of spleen metastasis in tumor at 10 mg/kg, ip measured for 3 days; assay type: functional, organism-based; settings: time 3.0 day
[20] = Hepatotoxicity in nude mouse at 10 mg/kg, ip measured for 3 days; assay type: toxicity, organism-based; settings: in vivo, 72 h, time 3 day
MDA-MB-231 [21] = test: Antitumor activity against human MDA-MB-231 cells xenografted in nude mouse assessed as decrease in Ki67 expression at 10 mg/kg, ip measured for 3 days by immunohistochemistry analysis; assay type: functional, organism-based; settings: time 3.0 day
MDA-MB-231 [22] = test: Antitumor activity against human MDA-MB-231 cells xenografted in nude mouse assessed as decrease in CD31 expression at 10 mg/kg, ip measured for 3 days by immunohistochemistry analysis; assay type: functional, organism-based; settings: time 3.0 day
[23] = Inhibition of PI3K/AKT/mTOR signaling pathway in human MDA-MB-231 cells assessed as decrease in EGFR expression at 1 to 4 uM incubated for 6 hrs by Western blot analysis; assay type: cell-based; settings: dose 1-4 µM
[24] = Inhibition of PI3K/AKT/mTOR signaling pathway in human MDA-MB-231 cells assessed as decrease in AKT expression at 1 to 4 uM incubated for 6 hrs by Western blot analysis; assay type: cell-based; settings: dose 1-4 µM
[25] = Inhibition of PI3K/AKT/mTOR signaling pathway in human MDA-MB-231 cells assessed as decrease in AKT phosphorylation at 1 to 4 uM incubated for 6 hrs by Western blot analysis; assay type: cell-based; settings: dose 1-4 µM
[26] = Inhibition of PI3K/AKT/mTOR signaling pathway in human MDA-MB-231 cells assessed as decrease in mTOR expression at 1 to 4 uM incubated for 6 hrs by Western blot analysis; assay type: cell-based; settings: dose 1-4 µM
[27] = Inhibition of PI3K/AKT/mTOR signaling pathway in human MDA-MB-231 cells assessed as decrease in mTOR phosphorylation at 1 to 4 uM incubated for 6 hrs by Western blot analysis; assay type: cell-based; settings: dose 1-4 µM
[28] = Inhibition of PI3K/AKT/mTOR signaling pathway in human MDA-MB-231 cells assessed as increase in p38 expression at 2 to 4 uM incubated for 6 hrs by Western blot analysis; assay type: cell-based; settings: dose 2-4 µM
[29] = Inhibition of PI3K/AKT/mTOR signaling pathway in human MDA-MB-231 cells assessed as increase in p38 phosphorylation at 2 to 4 uM incubated for 6 hrs by Western blot analysis; assay type: cell-based; settings: dose 2-4 µM

Sequence of Dual specificity protein kinase CLK2 (P49760 whole entry): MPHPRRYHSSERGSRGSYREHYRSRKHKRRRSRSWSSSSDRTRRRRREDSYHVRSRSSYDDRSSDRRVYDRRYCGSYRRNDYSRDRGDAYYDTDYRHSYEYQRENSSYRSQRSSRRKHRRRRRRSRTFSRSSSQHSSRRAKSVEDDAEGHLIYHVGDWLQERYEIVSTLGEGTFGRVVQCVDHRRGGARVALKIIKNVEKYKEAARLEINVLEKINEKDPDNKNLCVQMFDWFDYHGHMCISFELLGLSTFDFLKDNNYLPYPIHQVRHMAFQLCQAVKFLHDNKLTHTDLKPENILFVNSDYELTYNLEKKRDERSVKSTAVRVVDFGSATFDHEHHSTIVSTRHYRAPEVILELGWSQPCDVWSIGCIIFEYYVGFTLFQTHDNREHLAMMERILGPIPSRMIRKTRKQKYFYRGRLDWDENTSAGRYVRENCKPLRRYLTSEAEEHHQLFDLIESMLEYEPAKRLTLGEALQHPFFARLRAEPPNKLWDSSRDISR
Sequence of Dual specificity protein kinase CLK4 (Q9HAZ1 whole entry): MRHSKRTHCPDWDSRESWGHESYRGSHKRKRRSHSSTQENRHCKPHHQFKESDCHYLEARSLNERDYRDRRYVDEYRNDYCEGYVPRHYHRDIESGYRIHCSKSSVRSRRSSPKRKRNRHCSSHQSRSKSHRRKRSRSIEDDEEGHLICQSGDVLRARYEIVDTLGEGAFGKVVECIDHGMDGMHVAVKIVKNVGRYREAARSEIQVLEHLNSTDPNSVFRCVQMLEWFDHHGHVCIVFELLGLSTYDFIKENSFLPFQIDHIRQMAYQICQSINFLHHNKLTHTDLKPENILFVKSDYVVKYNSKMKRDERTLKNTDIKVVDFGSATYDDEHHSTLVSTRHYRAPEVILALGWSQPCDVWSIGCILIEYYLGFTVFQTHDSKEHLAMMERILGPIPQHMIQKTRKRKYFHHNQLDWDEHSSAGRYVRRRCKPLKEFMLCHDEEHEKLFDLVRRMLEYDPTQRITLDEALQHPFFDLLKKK
Sequence of Dual specificity protein kinase CLK1 (P49759 whole entry): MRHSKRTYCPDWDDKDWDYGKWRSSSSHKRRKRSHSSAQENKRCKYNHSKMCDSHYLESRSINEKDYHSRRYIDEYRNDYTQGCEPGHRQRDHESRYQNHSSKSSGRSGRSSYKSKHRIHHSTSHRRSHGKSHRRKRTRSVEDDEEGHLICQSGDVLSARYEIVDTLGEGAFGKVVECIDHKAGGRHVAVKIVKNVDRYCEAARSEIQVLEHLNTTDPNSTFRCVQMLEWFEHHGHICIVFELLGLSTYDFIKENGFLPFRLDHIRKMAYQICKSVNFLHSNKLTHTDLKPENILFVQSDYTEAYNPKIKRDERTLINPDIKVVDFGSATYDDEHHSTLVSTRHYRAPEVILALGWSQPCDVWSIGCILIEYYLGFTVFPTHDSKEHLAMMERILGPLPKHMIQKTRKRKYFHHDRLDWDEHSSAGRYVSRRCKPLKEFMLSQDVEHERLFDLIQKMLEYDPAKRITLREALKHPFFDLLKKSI
Sequence of Cyclin-dependent kinase 7 (P50613 whole entry): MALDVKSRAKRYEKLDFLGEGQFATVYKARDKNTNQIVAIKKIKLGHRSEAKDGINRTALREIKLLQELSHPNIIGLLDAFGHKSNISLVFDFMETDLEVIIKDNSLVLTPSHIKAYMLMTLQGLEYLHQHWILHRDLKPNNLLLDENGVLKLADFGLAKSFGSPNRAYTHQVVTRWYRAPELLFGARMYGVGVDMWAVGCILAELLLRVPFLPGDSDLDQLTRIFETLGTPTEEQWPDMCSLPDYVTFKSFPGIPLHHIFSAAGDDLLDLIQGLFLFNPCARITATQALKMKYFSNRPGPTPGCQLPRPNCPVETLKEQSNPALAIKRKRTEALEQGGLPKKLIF

IC50 [2]: 2320 nM
IC50 [3]: 194 nM
IC50 [4]: 685 nM
IC50 [5]: 2970 nM
IC50 [6]: 3890 nM
IC50 (K562): 320 nM
IC50 (MGC-803): 3890 nM
IC50 (A549): 2120 nM
IC50 (NCI-H1299): 4280 nM
IC50 (HT-29): 4160 nM
IC50 (PC-3): 2430 nM
IC50 (MDA-MB-231 [7]): 3150 nM
Activity (Cell membrane): 24.5%
Compound: OCCN1CCC(C2CCN(c3nc(NCc4ccc(F)c(Cl)c4)c4ncn(CC5CC5)c4n3)CC2)CC1
Activity (MDA-MB-231 [1]): 80.7%
Activity (MDA-MB-231 [8]): ~100%
Activity (MDA-MB-231 [9]): ~100%
Activity (MDA-MB-231 [10]): Active
Activity (MDA-MB-231 [11]): 83.5%
Activity (MDA-MB-231 [12]): 96.3%
Activity (MDA-MB-231 [13]): >95%
Activity (MDA-MB-231 [14]): >95%
Activity (MDA-MB-231 [15]): 23.48 um
Activity (HUVEC): Active
Activity (MDA-MB-231 [16]): Active
Activity [17]: Non-Toxic
Activity (MDA-MB-231 [18]): Active
Activity (MDA-MB-231 [19]): Active
Activity [20]: Non-Toxic
Activity (MDA-MB-231 [21]): Active
Activity (MDA-MB-231 [22]): Active
inhibition [23]: Active
inhibition [24]: Active
inhibition [25]: Active
inhibition [26]: Active
inhibition [27]: Active
inhibition [28]: Active
inhibition [29]: Active
